US20020045669A1, “Anti-arrhythmic composition and methods of treatment” (priority 2000, published 2002)
Entries after “also recorded” stand apart in the source; their conditions may differ.

Assays:
[1] = system: DOCA/saline pre-treated rats with isoproterenol-induced arrhythmia; experiment: Arrhythmic reversal studies (established isoproterenol arrhythmia); assay type: in vivo, rat; settings: i.v. bolus at one-half of the effective s.c. dose, five minutes after isoproterenol
Protocol: The animals were implanted with a 25 mg pellet of DOCA and maintained on the 1% saline as their drinking fluid as discussed above. The animals were anesthetized with Avertin and prepared for the recording of blood pressure and the EKG. In addition, the animal's left jugular vein was also cannulated with PE-50 tubing. The tubings were filled with saline and exteriorized dorsally between the animal's shoulders. Isoproterenol was administered s.c. at a dose of 150 μg/kg and an arrhythmia was allowed to develop for five minutes. […] Continuous blood pressure, heart rate and EKG readings were obtained. Additional Avertin was given as needed to maintain anesthesia. The hearts of the animals were perfused with buffered formalin immediately after the onset of ventricular fibrillation or one hour after the administration of isoproterenol.
(§1) Two kinds of anti-arrhythmic experiments were carried out, both prophylaxis and reversal studies. DOCA-treated animals were either first given the test compounds s.c. followed twenty minutes later by isoproterenol (prevention studies) or isoproterenol followed by the test compound given intravenously after five minutes (reversal studies). The time frames were chosen based on two issues: previous experience with the pharmacokinetics of polyamine analogues and the time required for isoproterenol to induce cardiac abnormalities and death in DOCA-treated rodents.

[2] = system: DOCA/saline pre-treated rats challenged with isoproterenol; experiment: Prevention of isoproterenol-induced arrhythmia and mortality in DOCA/saline pre-treated rats; assay type: in vivo, rat; settings: for % SURVIVAL / ARRHYTHMIA (number of animals): 20 min before isoproterenol 150 μg/kg s.c.
Protocol: Briefly, rats were anesthetized with sodium pentobarbital (55 mg/kg. i.p.), and a 25 mg pellet of desoxycorticosterone acetate (DOCA) was implanted s.c. in the axillary region. The rats were allowed to recover from the anesthetic and returned to their home cages. The animals were given commercial rat chow and a 1% solution of saline as their drinking fluid ad libitum. The animals were maintained on this regimen for approximately thirty days.
Twenty minutes later, the rats were challenged with a single s.c. dose of isoproterenol, 150 μg/kg. The animals were closely monitored for one hour and any obvious arrhythmic episodes or mortalities were recorded.
as §1

normotensive rats = settings: earlier results; cited from earlier work
[3] = system: mice exposed to deep chloroform anesthesia; experiment: Chloroform anesthesia-induced cardiac arrhythmia (Lawson procedure); assay type: in vivo; settings: 100 mg/kg i.p., thirty minutes before chloroform; observed 15 minutes; <2 of three = significant protection
Protocol: In this procedure [Lawson, J. Pharmacol. Exer. Therap., Vol. 160, pages 22-31 (1968)], the test substance [diethylhomospermine (DEHSPM)] is administered i.p. (100 mg/kg) to a group of three mice thirty minutes before exposure to deep chloroform anesthesia and observed during the ensuing 15-minute period.

[4] = system: DOCA/saline pre-treated rats; experiment: Evaluation of blood pressure, heart rate and EKG in DOCA/saline rats; assay type: in vivo, rat; settings: continuous monitoring, compound given s.c.
Protocol: Blood pressure and heart rate parameters, as well as an EKG, were evaluated for compounds displaying anti-arrhythmic properties. The animals were implanted with DOCA and maintained on 1% saline as their drinking fluid as discussed above. The animals were anesthetized with Avertin (tribromoethanol, 2.5%), 1 ml/100 g given i.p. and prepared for the recording of blood pressure and the EKG. To allow for the direct measurement of blood pressure, the animals's left carotid artery was cannulated with PE-50 tubing. The tubing was filled with saline and exteriorized dorsally between the animal's shoulders.
After the surgery was completed, the catheter in the carotid artery was connected to a blood pressure transducer (ADInstruments, Inc., Milford, Mass.). To allow for the recording of the EKG, 22 gauge needles were placed s.c. at the rat's left shoulder, right shoulder and left leg. The needles were then attached via alligator clips to a MacLab Bio Amplifier (ADInstruments, Inc., Milford, Mass.). […] A baseline blood pressure, heart rate and EKG were obtained, and the compound under investigation was administered s.c. Twenty minutes later, the animals were challenged with a single dose of isoproterenol, 150 μg/kg s.c. Continuous blood pressure, heart rate and EKG readings were obtained. […]

[5] = DOCA/isoproterenol-treated rats, prophylaxis

Row | Structure (SMILES) | effect on survival / activity in the model (in words) [2, 5] | % SURVIVAL ([2]; dose 115 μmol/kg s.c.) | ARRHYTHMIA (number of animals) ([2]; dose 115 μmol/kg s.c.) | anti-arrhythmic properties (in words) [2, 5] | other results
1 | CC(C)NCC(O)COc1cccc2ccccc12 (racemic) [Propranolol, d,l-propranolol] | – | – | – | – | EKG pattern after treatment in reversal experiment [1]: reverted to a more normal pattern; evidence of ischemia in EKG in reversal experiment [1]: some evidence of ischemia; survival in reversal experiment [1]: survived
2 | CCNCCCCCCCCCNCC [DE(9), C2H5—NH—(CH2)9—NH—C2H5] | no activity | 0% | 5 | – | –
3 | CCNCCCCNCCCCNCCCCNCC [DEHSPM(4,4,4), diethylhomospermine] | none of the three polyamine anti-metabolites tested in this model had any effects on the survival | 0% | 5 | – | effect on blood pressure (normotensive rats): lower blood pressure; animals exhibiting cardiac arrhythmia (of three mice) [3]: one
4 | CCNCCCNCCCNCCCNCC [DENSPM(3,3,3), diethylnorspermine] | none of the three polyamine anti-metabolites tested in this model had any effects on the survival | – | – | – | % SURVIVAL ([2]; dose 231 μmol/kg s.c.): 0%; ARRHYTHMIA (number of animals) ([2]; dose 231 μmol/kg s.c.): 5; effect on blood pressure (normotensive rats): lower blood pressure
5 | CCNCCCNCCCCNCCCNCC [DESPM(3,4,3), diethylspermine] | none of the three polyamine anti-metabolites tested in this model had any effects on the survival | 0% | 5 | – | –
6 | FC(F)(F)CNCCCNCCCCNCCCNCC(F)(F)F [FDESPM, Di-β,β,β-trifluoroethylspermine] | – | 40% | 7 | some anti-arrhythmic prophylactic behavior | animals surviving ([2]; DOCA/isoproterenol-treated rats, prophylaxis, dose not given): 40%
7 | C(CNC1CCNCC1)CNC1CCNCC1 [PIP(3,3,3)] | nor was it found to be active in this model | 0% | 5 | – | –
8 | c1cc(NCCCNc2ccncc2)ccn1 [PYR(3,3,3)] | – | 100% | 2 | presented with anti-arrhythmic properties; also recorded: performed best | effects on blood pressure and heart rate [4]: No appreciable effects on blood pressure and heart rate; % SURVIVAL ([2]; dose 14 μmol/kg s.c.): 40%; ARRHYTHMIA (number of animals) ([2]; dose 14 μmol/kg s.c.): 5; % SURVIVAL ([2]; dose 28 μmol/kg s.c.): 40%; ARRHYTHMIA (number of animals) ([2]; dose 28 μmol/kg s.c.): 5; % SURVIVAL ([2]; dose 59 μmol/kg s.c.): 60%; ARRHYTHMIA (number of animals) ([2]; dose 59 μmol/kg s.c.): 4; EKG pattern after treatment in reversal experiment [1]: reverted to a normal appearance; evidence of ischemia in EKG in reversal experiment [1]: little to no evidence of ischemia
9 | c1cc(NCCCCNc2ccncc2)ccn1 [PYR(3,4,3)] | – | 60% | 2 | presented with anti-arrhythmic properties | % SURVIVAL ([2]; dose 59 μmol/kg s.c.): 60%; ARRHYTHMIA (number of animals) ([2]; dose 59 μmol/kg s.c.): 2; % SURVIVAL ([2]; dose 231 μmol/kg s.c.): 80%; ARRHYTHMIA (number of animals) ([2]; dose 231 μmol/kg s.c.): 2
10 | c1cc(CNCCCCNCc2ccncc2)ccn1 [PYR(4,4,4)] | – | 0% | 5 | presented with anti-arrhythmic properties | % SURVIVAL ([2]; dose 231 μmol/kg s.c.): 40%; ARRHYTHMIA (number of animals) ([2]; dose 231 μmol/kg s.c.): 2
11 | NCCCCN [Putrescine(4), Putrescine, reference compound] | no effect on survival | 0% | 5 | – | % SURVIVAL ([2]; dose 1240 μmol/kg s.c.): 0%; ARRHYTHMIA (number of animals) ([2]; dose 1240 μmol/kg s.c.): 5; % SURVIVAL ([2]; dose 1861 μmol/kg s.c.): 0%; ARRHYTHMIA (number of animals) ([2]; dose 1861 μmol/kg s.c.): 5
